Test results taken from patent US7834011B2, “Heterocyclylalkyl derivatives as novel inhibitors of histone deacetylase” (Janssen Pharmaceutica N.V., priority 2006, dated 2010).
≈ marks a conversion by molar mass, not a printed value.

What was measured:
[1] = molecular target: histone deacetylase (HeLa nuclear extracts); assay: In vitro assay for inhibition of histone deacetylase with fluorescent-labelled substrate (Fluor de Lys); type: biochemical
Excerpt: The in vitro assay for inhibition of histone deacetylase (see example C.1) measures the inhibition of HDAC enzymatic activity obtained with the compounds of formula (I).
The HDAC Fluorescent Activity Assay/Drug Discovery Kit of Biomol (cat. No: AK-500-0001) was used. The HDAC Fluorescent Activity Assay is based on the Fluor de Lys (Fluorogenic Histone deAcetylase Lysyl) substrate and developer combination. The Fluor de Lys substrate, comprises an acetylated lysine side chain. Deacetylation of the substrate sensitizes the substrate so that, in the second step, treatment with the Fluor de Lys developer produces a fluorophore.
HeLa nuclear extracts (supplier: Biomol) were incubated at 60 μg/ml with 75 μM of substrate. The Fluor de Lys substrate was added in a buffer containing 25 mM Tris, 137 mM NaCl, 2.7 mM KCl and 1 mM MgCl2.6H2O at pH 7.4. After 30 min, 1 volume of the developer was added. The fluorophore was excited with 355 nm light and the emitted light (450 nm) was be detected on a fluorometric plate reader.
For each experiment, controls (containing HeLa nuclear extract and buffer), a blank incubation (containing buffer but no HeLa nuclear extract) and samples (containing compound dissolved in DMSO and further diluted in buffer and HeLa nuclear extract) were run in parallel. In first instance, compounds were tested at a concentration of 10^−5M. […] All sample were tested 4 times. In each test the blank value was subtracted from both the control and the sample values. The control sample represented 100% of substrate deactylation. For each sample the fluorescence was expressed as a percentage of the mean value of the controls. […] Herein the effects of test compounds are expressed as pIC50 (the negative log value of the IC50-value) (see Table F-2).

[2] = test system: A2780 ovarian carcinoma cells; assay: Antiproliferative activity on A2780 cells (MTT); type: cell-based; details: Homo sapiens, 96 h, four days of incubation, read-out: Cellular activity pIC50 C.2 (converted)
Description: Cellular activity of the compounds of formula (I) was determined on A2780 tumour cells using a colorimetric assay for cell toxicity or survival (Mosmann Tim, Journal of Immunological Methods 65: 55-63, 1983)(see example C.2).
All compounds tested were dissolved in DMSO and further dilutions were made in culture medium. Final DMSO concentrations never exceeded 0.1% (v/v) in cell proliferation assays. Controls contained A2780 cells and DMSO without compound and blanks contained DMSO but no cells. MTT was dissolved at 5 mg/ml in PBS. A glycine buffer comprised of 0.1 M glycine and 0.1 M NaCl buffered to pH 10.5 with NaOH (1 N) was prepared (all reagents were from Merck).
The human A2780 ovarian carcinoma cells (a kind gift from Dr. T. C. Hamilton [Fox Chase Cancer Centre, Pennsylvania, USA]) were cultured in RPMI 1640 medium supplemented with 2 mM L-glutamine, 50 μg/ml gentamicin and 10% fetal calf serum. Cells were routinely kept as monolayer cultures at 37° C. in a humidified 5% CO2 atmosphere. Cells were passaged once a week using a trypsin/EDTA solution at a split ratio of 1:40. All media and supplements were obtained from Life Technologies. Cells were free of mycoplasma contamination as determined using the Gen-Probe Mycoplasma Tissue Culture kit (supplier: BioMérieux).
Cells were seeded in NUNC™ 96-well culture plates (Supplier: Life Technologies) and allowed to adhere to the plastic overnight. Densities used for plating were 1500 cells per well in a total volume of 200 μl medium. After cell adhesion to the plates, medium was changed and drugs and/or solvents were added to a final volume of 200 μl. Following four days of incubation, medium was replaced by 200 μl fresh medium and cell density and viability was assessed using an MTT-based assay. To each well, 25 μl MTT solution was added and the cells were further incubated for 2 hours at 37° C. The medium was then carefully aspirated and the blue MTT-formazan product was solubilized by addition of 25 μl glycine buffer followed by 100 μl of DMSO. […] Within an experiment, the results for each experimental condition are the mean of 3 replicate wells. For initial screening purposes, compounds were tested at a single fixed concentration of 10^−6 M. For active compounds, the experiments were repeated to establish full concentration-response curves. For each experiment, controls (containing no drug) and a blank incubation (containing no cells or drugs) were run in parallel. The blank value was subtracted from all control and sample values. For each sample, the mean value for cell growth (in absorbance units) was expressed as a percentage of the mean value for cell growth of the control. […] Herein the effects of test compounds are expressed as pIC50 (the negative log value of the IC50-value)(see Table F-2).

[3] = Solubility at pH 2.3 (chemiluminescent nitrogen detector); type: physicochemical; details: pH 2.3, aqueous buffer; read-out: Solubility C.3.c. pH = 2.3
Excerpt: In a third method the solubility of a compound at different pH's can be measured with the use of a Chemiluminescent Nitrogen Detector (see example C.3.c).
The solubility of a compound, at pH 2.3, can also be measured with the use of a chemiluminescent nitrogen detector (see Table F-2).

Enzymatic activity pIC50 C.1 [1] | IC50 [2] [nM] | solubility [3] [µg/mL] | melting point [°C] | Compound
6.9 | 2000 | < 10 |  | CCC(=O)N(Cc1ccc2nnn(C)c2c1)CC1CCN(c2ncc(C(=O)NO)cn2)CC1 [Compound 27]
7.6 | 158 |  |  | CC(C)n1nnc2cc(CNCC3CCN(c4ncc(C(=O)NO)cn4)CC3)ccc21 [Compound 18]
 |  |  | 152 | Cn1nc(CNCC2CN(c3ncc(C(=O)Nc4ccccc4N)cn3)CCO2)c2ccccc21 (stereo not shown) [Compound 5]
7.8 | 158 | 2500 (≈ 6.31 mM) |  | Cn1nnc2cc(CNCC3CCN(c4ncc(C(=O)NO)cn4)CC3)ccc21 [Compound 20]
7.7 | 126 |  |  | Cn1nnc2cc(CN(CC#N)CC3CCN(c4ncc(C(=O)NO)cn4)CC3)ccc21 [Compound 25]
7.8 | 200 |  | 197 | Cn1nnc2cc(COCC3CCN(c4ncc(C(=O)NO)cn4)CC3)ccc21 [Compound 7]
 |  |  | 219 | Cn1nc(CN2CCN(c3ccc(C(=O)Nc4ccccc4N)cn3)CC2)c2ccccc21 [Compound 6]
7.4 | 251 | 10 (≈ 0.0209 mM) |  | CCCn1nc(CN(CC2CCN(c3ncc(C(=O)NO)cn3)CC2)C(=O)CC)c2ccccc21 [Compound 28]
8.5 | 794 |  | 130 | Cn1nnc2cc(CN(CC3CCN(c4ncc(C(=O)NO)cn4)CC3)C(=O)NO)ccc21 [Compound 11]
8.2 | 39.8 |  |  | Cn1cc(CNCC2CCN(c3ncc(C(=O)NO)cn3)CC2)c2cccnc21 [Compound 15]
8.1 | 1580 | 2500 (≈ 6.32 mM) |  | Cn1nc2ccccc2c1CNCC1CCN(c2ncc(C(=O)NO)cn2)CC1 [Compound 19]
7.5 | 158 |  |  | Cn1nc(CN2CCN(c3ccc(C(=O)NO)cn3)CC2)c2ccccc21 [Compound 14]
8.7 | 50.1 | 2700 (≈ 6.36 mM) | 110 | CCN(Cc1ccc2nnn(C)c2c1)CC1CCN(c2ncc(C(=O)NO)cn2)CC1 [Compound 10]
8.2 | 100 | 2500 (≈ 6.27 mM) | 208 | O=C(NO)c1cnc(N2CCC(CNCc3nc4ccccc4s3)CC2)nc1 [Compound 8]
7.5 | 794 | 1900 (≈ 4.34 mM) |  | CC(=O)N(Cc1nc2ccccc2n1C)CC1CCN(c2ncc(C(=O)NO)cn2)CC1 [Compound 21]
 |  |  | 138 | CCCn1nc(CN2CCN(c3ccc(C(=O)Nc4cc(-c5cccs5)ccc4N)cn3)CC2)c2ccccc21 [Compound 31]
7.6 | 251 | < 10 | 199 | CCC(=O)N(Cc1nn(C)c2ccccc12)CC1CCN(c2ncc(C(=O)NO)cn2)CC1 [Compound 13]
7.2 | 794 | 400 (≈ 0.857 mM) |  | CC(=O)N(Cc1ccc2c(c1)nnn2C(C)C)CC1CCN(c2ncc(C(=O)NO)cn2)CC1 [Compound 29]
7.4 | 1580 |  |  | CC(=O)N(Cc1ccc2c(c1)nnn2C)CC1CCN(c2ncc(C(=O)NO)cn2)CC1 [Compound 26]
9.0 | 31.6 | 3800 (≈ 8.97 mM) |  | CCCn1nc(CNCC2CCN(c3ncc(C(=O)NO)cn3)CC2)c2ccccc21 [Compound 17]
8.3 | 200 | 2400 (≈ 5.65 mM) | 168 | CCN(Cc1ccc2c(c1)nnn2C)CC1CCN(c2ncc(C(=O)NO)cn2)CC1 [Compound 9]
8.0 | 1000 |  |  | Cc1nc2ccc(CNCC3CCN(c4ncc(C(=O)NO)cn4)CC3)cc2[nH]1 [Compound 23]
7.8 | 200 |  | 193 | Cn1nc(CNCC2CN(c3ncc(C(=O)NO)cn3)CCO2)c2ccccc21 (stereo not shown) [Compound 4]
8.4 | 50.1 | 4600 (≈ 10.2 mM) |  | CCN(Cc1ccc2c(c1)nnn2C(C)C)CC1CCN(c2ncc(C(=O)NO)cn2)CC1 [Compound 24]
7.8 | 1260 | < 10 | 260 | Cn1nnc2ccc(CN(CC3CCN(c4ncc(C(=O)NO)cn4)CC3)S(C)(=O)=O)cc21 [Compound 12]
7.5 | 100 |  |  | Cn1nc(CNCC2CCN(c3ccc(C(=O)NO)cn3)CC2)c2ccccc21 [Compound 16]
